Test results from patent publication US8598225B2, “Use of L-butylphthalide in the manufacture of medicaments for treatment of cerebral infarct” (CSPC Zhongqi Pharmaceutical Technology (Shijiazhuang) Co., …, priority 2003, dated 2013).
Entries after “also recorded” stand apart in the source; their conditions may differ.

Assays:
[1] = system: transient focal cerebral ischemic model (tMCAO); test: Cerebral infarct volume of tMCAO rats (2 h middle cerebral artery occlusion, 24 h reperfusion, TTC staining); format: in vivo, rat; details: 15 min after ischemia; for effect on infarct volume (in words): oral, l-NBP and d-NBP 20 and 40 mg/kg, dl-NBP 40 and 80 mg/kg, vs. vehicle; for reduction of infarct volume vs. vehicle group: tMCAO rats, p<0.001
[2] = system: acute ischemic cerebral stroke; details: administration group; 192 cases multi centered, random, double blinded, placebo control (placebo 41.0%); cited from earlier work
[3] = system: transient focal cerebral ischemic model (tMCAO); test: Neurological behavioral evaluation of tMCAO rats (score 0-4); details: for improvement of neurological symptoms (in words): oral, d-NBP 20 and 40 mg/kg, dl-NBP 40 and 80 mg/kg, vs. vehicle; for mean neurological score: 15 min after ischemia, scored at 24 h, vehicle 2.6±0.3
Experimental: Male Wistar rats weighed 280-320 g were used, with each 5 rats kept in one cage. Animals were allowed free access to food and water at room temperature controlled at 23° C. The rats were anesthetized with 40 mg/kg of sodium pentobarbital. Under the surgical microscope, a midline neck skin incision was make to expose the right common cartotid artery, and the internal carotid artery (ICA) and external carotid artery (ECA) were then separated free from surrounding nerves and fascia, and the anastomotic branch was ligated. The ECA were ligated and cut, pulled to be straight and in line with ICA. A nylon suture with rounded tip and the diameter of 0.28 mm (coated with poly-L-lysine) was introduced from ECA into the lumen of the ICA for about 20 mm, advancing endocranially to the starting point of middle cerebral artery.
After 2 h of ischemia, the nylon suture was carefully withdrawn, and the ECA was ligated at the site of opening. The rats were then sutured and placed back into the cage, and allowed to reperfuse for 24 h. Room temperature throughout the operation was kept at 24-25° C. The rats were placed on the heating plate of 37° C. to maintain the body temperature throughout the operation. The administration was performed 15 minutes after ischemia.
Rats were divided into eight groups with 10 rats in each group. Group 1 was vehicle control with 1 ml/kg of vegetable oil; groups 2) and 3) were 40 and 80 mg/kg of dl-NBP; groups 4) and 5) were 20 and 40 mg/kg of d-NBP; groups 6) and 7) were 20 and 40 mg/kg of l-NBP; and group 8 was 0.1 mg/kg of MK801. Animals in groups 1-7 were orally administered, and animals in group 8 were intraperitoneally administered.
Neurological behavioral observation was conducted after 24 h of ischemia. Rats were lifted up by tail 1 inch away from the ground, and the conditions of both forelimbs were observed; both shoulders were pushed to observe if there was any difference between the resistances by both sides; the rats were placed down to the ground and their walking conditions were observed. Scores were given in accordance with the following criteria. • 0: strong forelimbs, symmetrically stretching towards the ground; identical resistance of both shoulders, and normal walk. • 1: contralateral shoulder flexion, forelimb flexion; identical resistance of both shoulders, and normal walk. • 2: contralateral shoulder flexion, forelimb flexion; decreased resistance of contralateral shoulder to push; and normal walk. • 3: contralateral shoulder flexion, forelimb flexion; decreased resistance of contralateral shoulder to push; and circling when walking • 4: contralateral shoulder flexion, forelimb flexion; and unable to autonomously move. The higher the score is, the more severe the behavioral disorder of the animal is.
The results were expressed as mean±standard error. Neurological behavioral score and cerebral infarct volume were statistically analyzed using one-way ANOVA and the difference between groups using posthoc LSD test. Result was considered to show a significant difference when p<0.05.

[4] = system: micro-circulation; details: previous studies; cited from earlier work

| SMILES | effect on infarct volume (in words) [1] | total effective rate [2] [%] | improvement of neurological symptoms (in words) [3] | reduction of infarct volume vs. vehicle group ([1]; 0.1 mg/kg intraperitoneal) [%] | mean neurological score ([3]; 0.1 mg/kg intraperitoneal, p<0.001) | adverse behavioral signs in treated animals ([3]; 0.1 mg/kg intraperitoneal, tMCAO rats) | cerebral protective and micro-circulation improving effect (in words) [4] | reduction of infarct volume vs. vehicle group ([1]; 40 mg/kg oral, 24 h reperfusion) [%] | mean neurological score ([3]; 20 mg/kg oral, p<0.01) | mean neurological score ([3]; 40 mg/kg oral, p<0.001) |
| --- | --- | --- | --- | --- | --- | --- | --- | --- | --- | --- |
| CCCCC1OC(=O)c2ccccc21 (racemic) [dl-NBP, racemic butylphthalide] | no significant effect; also recorded: no reduction effect | 70.7 | no significant improvement | – | – | – | – | – | – | – |
| C[C@]12N[C@H](Cc3ccccc31)c1ccccc12 [MK801] | – | – | – | 81.8 | 0.8 | the limbs were weak, and staggered when sprawling, ataxia occurred, and unilaterally circled | – | – | – | – |
| CCCC[C@H]1OC(=O)c2ccccc21 [d-NBP, dextro-butylphthalide] | no significant effect | – | no significant improvement | – | – | – | no such effect | – | – | – |
| CCCC[C@@H]1OC(=O)c2ccccc21 [l-NBP, L-n-butylphthalide] | significantly reduced dose-dependently; also recorded: very significantly and dose dependently reduced | – | – | – | – | – | also has cerebral protective effect and micro-circulation improving effect | 80.4 | 1.4 | 1.1 |
